In patent US12503475B2 (Centessa Pharmaceuticals (UK) Limited, priority 2020, dated 2025):

Molecular target: T1, human orexin type 2 receptor (hOX2R) (Homo sapiens, UniProt O43614)
T1 construct: expressed in transfected cells
T1 sequence (O43614 1-444): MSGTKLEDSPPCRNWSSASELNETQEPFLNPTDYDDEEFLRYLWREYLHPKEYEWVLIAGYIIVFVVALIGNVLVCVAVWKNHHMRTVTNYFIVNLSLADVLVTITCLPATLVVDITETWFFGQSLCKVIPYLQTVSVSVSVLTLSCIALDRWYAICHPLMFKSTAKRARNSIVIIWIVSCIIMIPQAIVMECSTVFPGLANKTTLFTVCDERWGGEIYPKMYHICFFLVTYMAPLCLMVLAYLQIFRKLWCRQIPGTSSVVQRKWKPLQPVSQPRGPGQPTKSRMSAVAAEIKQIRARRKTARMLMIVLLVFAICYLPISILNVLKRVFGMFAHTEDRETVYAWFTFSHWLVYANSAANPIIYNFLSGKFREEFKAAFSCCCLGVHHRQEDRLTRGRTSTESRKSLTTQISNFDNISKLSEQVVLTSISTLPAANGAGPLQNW
Test: Measurement of orexin type 2 receptor agonist activity (FLIPR calcium fluorescence)
Type: cell-based
Settings: CHO cells expressing hOX2R, FLIPR calcium fluorescence; for EC50: read-out: hOx2 pEC50 (converted); for Emax: CHO, read-out: hOx2 Emax (%)
Outline: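 Agonism was read as fluorescence in cells stably expressing human OX2R. E. is the response at 10 μM relative to orexin A as full agonist (100%).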

| SMILES | EC50 | Emax |
| --- | --- | --- |
| O=C(NCC1(F)CC1)N1CC2(CC2)[C@H](NS(=O)(=O)CF)[C@@H]1Cc1cc(F)cc(-c2ccccc2)c1F [Compound 228, (6S,7S)-6-((2,5-difluoro-[1,1′-biphenyl]-3-yl)methyl)-N-((1-fluorocyclopropyl)methyl)-7-((fluoromethyl)sulfonamido)-5-azaspiro[2.4]heptane-5-carboxamide] | 1 to 10 nM | 90 to 100% |
| CS(=O)(=O)NC1C(Cc2cccc(-c3cccc(F)c3)c2)N(C(=O)C2(O)CCC2)CC12CC2 (racemic) [Compound 51, N-(6-((3′-fluoro-[1,1′-biphenyl]-3-yl)methyl)-5-(1-hydroxycyclobutane-1-carbonyl)-5-zaspiro[2.4]heptan-7-yl)methanesulfonamide] | 1 to 10 nM | 90 to 100% |
| C[C@H](CF)NC(=O)N1CC2(CC2)[C@H](NS(=O)(=O)C(F)F)[C@@H]1Cc1cc(F)cc(-c2ccccc2)c1F [Compound 388, (6S,7S)-6-((2,5-difluoro-[1,1′-biphenyl]-3-yl)methyl)-7-((difluoromethyl)sulfonamido)-N-((R)-1-fluoropropan-2-yl)-5-azaspiro[2.4]heptane-5-carboxamide] | 1 to 10 nM | 90 to 100% |
| CC1(CNC(=O)N2CC3(CC3)[C@H](NS(C)(=O)=O)[C@@H]2Cc2cccc(-c3ccccc3)c2F)COC1 [Compound 322, (6S,7S)-6-((2-fluoro-[1,1′-biphenyl]-3-yl)methyl)-N-((3-methyloxetan-3-yl)methyl)-7-(methylsulfonamido)-5-azaspiro[2.4]heptane-5-carboxamide] | 0.0794 to 1 nM | 90 to 100% |
| O=C([C@H]1CCO1)N1CC2(CC2)[C@H](NS(=O)(=O)C(F)F)[C@@H]1Cc1cccc(-c2cccc(F)c2)c1 [Compound 213, 1,1-difluoro-N-((6S,7S)-6-((3′-fluoro-[1,1′-biphenyl]-3-yl)methyl)-5-((R)-oxetane-2-carbonyl)-5-azaspiro[2.4]heptan-7-yl)methanesulfonamide] | 1 to 10 nM | 90 to 100% |
| CCS(=O)(=O)NC1C(Cc2cccc(-c3ccccc3)c2)N(C(=O)N2CCC2)CC12CC2 (racemic) [Compound 3] | 1 to 10 nM | 90 to 100% |
| O=C(NCC(F)F)N1CC2(CC2)[C@H](NS(=O)(=O)C(F)F)[C@@H]1Cc1cccc(-c2ccccc2)c1F [Compound 165, (6S,7S)-N-(2,2-difluoroethyl)-7-((difluoromethyl)sulfonamido)-6-((2-fluoro-[1,1′-biphenyl]-3-yl)methyl)-5-azaspiro[2.4]heptane-5-carboxamide] | 1 to 10 nM | 90 to 100% |
| CN(CC1CC1)C(=O)N1CC2(CC2)[C@H](NS(C)(=O)=O)[C@@H]1Cc1cccc(-c2ccccc2)c1F [Compound 332, (6S,7S)-N-(cyclopropylmethyl)-6-((2-fluoro-[1,1′-biphenyl]-3-yl)methyl)-N-methyl-7-(methylsulfonamido)-5-azaspiro[2.4]heptane-5-carboxamide] | 1 to 10 nM | 90 to 100% |
| CS(=O)(=O)N[C@@H]1[C@H](Cc2cccc(-c3ccccc3)c2F)N(C(=O)NCCO)CC12CC2 (racemic) [Compound 307, 6-((2-fluoro-[1,1′-biphenyl]-3-yl)methyl)-N-(2-hydroxyethyl)-7-(methylsulfonamido)-5-azaspiro[2.4]heptane-5-carboxamide] | 1 to 10 nM | 90 to 100% |
| C[C@@H](F)S(=O)(=O)N[C@@H]1[C@H](Cc2cccc(-c3ccccc3)c2F)N(C(=O)[C@H]2CCO2)CC12CC2 [Compound 193, (S)-1-fluoro-N-((6S,7S)-6-((2-fluoro-[1,1′-biphenyl]-3-yl)methyl)-5-((R)-oxetane-2-carbonyl)-5-azaspiro[2.4]heptan-7-yl)ethane-1-sulfonamide] | 1 to 10 nM | 90 to 100% |
| CS(=O)(=O)N[C@@H]1[C@H](Cc2cccc(-c3ccccc3)c2)N(C(=O)[C@H](O)C2CC2)CC12CC2 [Compound 61, N-((6S,7S)-6-([1,1′-biphenyl]-3-ylmethyl)-5-((R)-2-cyclopropyl-2-hydroxyacetyl)-5-azaspiro[2.4]heptan-7-yl)methanesulfonamide] | 1 to 10 nM | 90 to 100% |
| C[C@H](F)C(=O)N1CC2(CC2)[C@H](NS(=O)(=O)CF)[C@@H]1Cc1cccc(-c2cc(F)cc(F)c2)c1F [Compound 232, 1-fluoro-N-((6S,7S)-5-((S)-2-fluoropropanoyl)-6-((2,3′,5′-trifluoro-[1,1′-biphenyl]-3-yl)methyl)-5-azaspiro[2.4]heptan-7-yl)methanesulfonamide] | 0.0794 to 1 nM | 90 to 100% |
| [2H]C([2H])([2H])Oc1c(C[C@H]2[C@@H](NS(=O)(=O)CF)C3(CC3)CN2C(=O)NC([2H])([2H])C([2H])([2H])[2H])cccc1-c1ccccc1 [Compound 397, (6S,7S)-N-(ethyl-d5)-7-((fluoromethyl)sulfonamido)-6-((2-(methoxy-d3)-[1,1′-biphenyl]-3-yl)methyl)-5-azaspiro[2.4]heptane-5-carboxamide] | 1 to 10 nM | 80 to 90% |
| [2H]C([2H])([2H])C([2H])([2H])NC(=O)N1CC2(CC2)[C@H](NS(C)(=O)=O)[C@@H]1Cc1cccc(-c2ccccc2)c1OC [Compound 363, (6S,7S)-N-(ethyl-d5)-6-((2-methoxy-[1,1′-biphenyl]-3-yl)methyl)-7-(methylsulfonamido)-5-azaspiro[2.4]heptane-5-carboxamide] | 10 to 100 nM | 70 to 80% |
| CS(=O)(=O)N[C@@H]1[C@H](Cc2cccc(-c3ccccc3)c2F)N(C(=O)NCCC#N)CC12CC2 [Compound 330, (6S,7S)-N-(2-cyanoethyl)-6-((2-fluoro-[1,1′-biphenyl]-3-yl)methyl)-7-(methylsulfonamido)-5-azaspiro[2.4]heptane-5-carboxamide] | 1 to 10 nM | 90 to 100% |
| CC(C#N)C(=O)N1CC2(CC2)[C@H](NS(C)(=O)=O)[C@@H]1Cc1cccc(-c2ccccc2)c1F (stereo partly drawn) [Compound 358, N-((6S,7S)-5-(2-cyanopropanoyl)-6-((2-fluoro-[1,1′-biphenyl]-3-yl)methyl)-5-azaspiro[2.4]heptan-7-yl)methanesulfonamide] | 1 to 10 nM | 90 to 100% |
| O=C(NCC(F)(F)F)N1CC2(CC2)[C@H](NS(=O)(=O)CF)[C@@H]1Cc1cccc(-c2ccccc2)c1F [Compound 211, (6S,7S)-6-((2-fluoro-[1,1′-biphenyl]-3-yl)methyl)-7-((fluoromethyl)sulfonamido)-N-(2,2,2-trifluoroethyl)-5-azaspiro[2.4]heptane-5-carboxamide] | 1 to 10 nM | 90 to 100% |
| O=C([C@H]1CCO1)N1CC2(CC2)[C@H](NS(=O)(=O)c2c[nH]cn2)[C@@H]1Cc1cccc(-c2ccccc2)c1 [Compound 75, N-((6S,7S)-6-([1,1′-biphenyl]-3-ylmethyl)-5-((R)-oxetane-2-carbonyl)-5-azaspiro[2.4]heptan-7-yl)-1H-imidazole-4-sulfonamide] | 10 to 100 nM | 90 to 100% |
| N#CC1(C(=O)N2CC3(CC3)[C@H](NS(=O)(=O)C(F)F)[C@@H]2Cc2cccc(-c3cc(F)cc(F)c3)c2F)CCC1 [Compound 381, N-((6S,7S)-5-(1-cyanocyclobutane-1-carbonyl)-6-((2,3′,5′-trifluoro-[1,1′-biphenyl]-3-yl)methyl)-5-azaspiro[2.4]heptan-7-yl)-1,1-difluoromethanesulfonamide] | 1 to 10 nM | 90 to 100% |
